# Measured values taken from US20060111363A1, “Treatment of uveal melanoma” (priority 2002, published 2006).
# pIC50: −log10 of the molar value. Values joined by “and” are separate entries in the source; they are usually repeats but may differ in a detail not shown here. Identical values can stand only once. Like-named read-outs stand apart in the source and are kept apart here.
# Tests used:
# [1] = tested on: uveal melanoma cell lines (OCM-1, OCM-3, 92-1 and mel 202); test: Survival / cell death of the four uveal melanoma cell lines; type: cell-based, human
# Excerpt: Cell culture: Four cell lines obtained from human primary uveal melanomas (OCM-1, OCM-3, 92-1 and mel 202) are used.
# c-kit = c-kit (Homo sapiens, UniProt P10721); details: treatment of uveal melanoma cell lines
# UM 92-1 cells = details: runs 1 and 2
# Excerpt: (§1) The test is based on a colorimetric change of the yellow tetrazolium slat XTT into orange formazan dye by the respiratory chain of viable cells (Roehm et al., 1991, J. Immunol. Assay, 142:257-265).
# [2] = tested on: BE skin melanoma cell line; details: read-out: IC50 of Salt I on survival
# Excerpt: (§2) Cell proliferation kit II is purchased from Roche Diagnostic GmbH (Mannheim, Germany). The test is based on a colorimetric change of the yellow tetrazolium slat XTT into orange formazan dye by the respiratory chain of viable cells (Roehm et al., 1991, J. Immunol. Assay, 142:257-265).
# [3] = tested on: DFB skin melanoma cell line; details: read-out: IC50 of Salt I on survival
# Excerpt: as §2
# OCM-1 cells = test: XTT cell viability, uveal melanoma cell line OCM-1; details: for percentages of living cells as compared to 100% survival of untreated cells: runs 1 and 2
# Excerpt: as §1
# OCM-3 cells = test: XTT cell viability, uveal melanoma cell line OCM-3; details: for percentages of living cells as compared to 100% survival of untreated cells: runs 1 and 2
# Excerpt: as §1
# mel 202 cells = test: XTT cell viability, uveal melanoma cell line mel 202; details: for percentages of living cells as compared to 100% survival of untreated cells: runs 1 and 2
# Excerpt: as §1
# Chain of c-kit (P10721 26-976): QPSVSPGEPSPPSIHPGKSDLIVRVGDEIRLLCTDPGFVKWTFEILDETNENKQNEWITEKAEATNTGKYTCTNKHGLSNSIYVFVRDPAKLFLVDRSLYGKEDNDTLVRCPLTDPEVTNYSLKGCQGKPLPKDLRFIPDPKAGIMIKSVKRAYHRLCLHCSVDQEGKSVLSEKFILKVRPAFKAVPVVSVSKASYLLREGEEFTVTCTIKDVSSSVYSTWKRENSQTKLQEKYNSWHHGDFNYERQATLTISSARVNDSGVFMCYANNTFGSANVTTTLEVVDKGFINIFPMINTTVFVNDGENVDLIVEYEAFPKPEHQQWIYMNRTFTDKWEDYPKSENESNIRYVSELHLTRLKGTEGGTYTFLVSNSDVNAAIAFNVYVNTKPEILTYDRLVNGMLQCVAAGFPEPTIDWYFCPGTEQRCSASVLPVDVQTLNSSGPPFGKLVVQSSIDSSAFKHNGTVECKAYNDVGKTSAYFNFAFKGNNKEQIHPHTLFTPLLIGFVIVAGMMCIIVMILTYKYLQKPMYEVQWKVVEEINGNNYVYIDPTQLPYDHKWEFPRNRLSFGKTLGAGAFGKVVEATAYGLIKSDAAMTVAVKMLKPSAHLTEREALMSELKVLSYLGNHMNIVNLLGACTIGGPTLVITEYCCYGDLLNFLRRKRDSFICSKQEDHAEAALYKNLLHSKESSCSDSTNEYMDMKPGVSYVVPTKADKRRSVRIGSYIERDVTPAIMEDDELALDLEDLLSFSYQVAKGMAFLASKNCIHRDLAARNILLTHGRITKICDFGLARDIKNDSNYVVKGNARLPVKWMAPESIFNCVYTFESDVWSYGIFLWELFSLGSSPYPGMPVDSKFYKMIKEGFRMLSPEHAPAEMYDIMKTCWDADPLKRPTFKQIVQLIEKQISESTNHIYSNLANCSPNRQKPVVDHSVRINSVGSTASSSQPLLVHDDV
smiles,measurement,setting,value
Cc1ccc(NC(=O)c2ccc(CN3CCN(C)CC3)cc2)cc1Nc1nccc(-c2cccnc2)n1 [Compound I],cell death in vitro,[1]; four uveal melanoma cell lines,promotes in vitro cell death
same,effect on c-kit auto-phosphorylation,c-kit,blocks c-kit auto-phosphorylation
CS(=O)(=O)O.Cc1ccc(NC(=O)c2ccc(CN3CCN(C)CC3)cc2)cc1Nc1nccc(-c2cccnc2)n1 [Salt I],cell loss,"[1]; uveal melanoma cell lines, even at low concentrations of Salt I",drastic cell loss
same,percentages of living cells as compared to 100% survival of untreated cells,"UM 92-1 cells; UM 92-1, 24 h, 0.3 μM Salt I",98% and 91%
same,percentages of living cells as compared to 100% survival of untreated cells,"UM 92-1 cells; UM 92-1, 24 h, 0.6 μM Salt I",95%
same,percentages of living cells as compared to 100% survival of untreated cells,"UM 92-1 cells; UM 92-1, 24 h, 5 μM Salt I",83% and 75%
same,percentages of living cells as compared to 100% survival of untreated cells,"UM 92-1 cells; UM 92-1, 24 h, 10 μM Salt I",70% and 83%
same,percentages of living cells as compared to 100% survival of untreated cells,"UM 92-1 cells; UM 92-1, 48 h, 0.3 μM Salt I",85% and 90%
same,percentages of living cells as compared to 100% survival of untreated cells,"UM 92-1 cells; UM 92-1, 48 h, 0.6 μM Salt I",79% and 71%
same,percentages of living cells as compared to 100% survival of untreated cells,"UM 92-1 cells; UM 92-1, 48 h, 5 μM Salt I",15% and 22%
same,percentages of living cells as compared to 100% survival of untreated cells,"UM 92-1 cells; UM 92-1, 48 h, 10 μM Salt I",0% and 5%
same,pIC50,[2],< 4.70
same,pIC50,[3],< 4.70
same,Salt I responsiveness,skin melanoma cell lines,no respondent
same,percentages of living cells as compared to 100% survival of untreated cells,"OCM-1 cells; OCM-1, 24 h, 0.3 μM Salt I",95% and 97%
same,percentages of living cells as compared to 100% survival of untreated cells,"OCM-1 cells; OCM-1, 24 h, 0.6 μM Salt I",87% and 82%
same,percentages of living cells as compared to 100% survival of untreated cells,"OCM-1 cells; OCM-1, 24 h, 5 μM Salt I",63%
same,percentages of living cells as compared to 100% survival of untreated cells,"OCM-1 cells; OCM-1, 24 h, 10 μM Salt I",50% and 52%
same,percentages of living cells as compared to 100% survival of untreated cells,"OCM-1 cells; OCM-1, 48 h, 0.3 μM Salt I",62% and 59%
same,percentages of living cells as compared to 100% survival of untreated cells,"OCM-1 cells; OCM-1, 48 h, 0.6 μM Salt I",40% and 37%
same,percentages of living cells as compared to 100% survival of untreated cells,"OCM-1 cells; OCM-1, 48 h, 5 μM Salt I",27% and 23%
same,percentages of living cells as compared to 100% survival of untreated cells,"OCM-1 cells; OCM-1, 48 h, 10 μM Salt I",23% and 29%
same,pIC50,"OCM-1 cells; read-out: IC50 of Salt I on survival, uveal melanoma cell line OCM-1, Example 1: 48 hours exposure",6.40
same,percentages of living cells as compared to 100% survival of untreated cells,"OCM-3 cells; OCM-3, 24 h, 0.3 μM Salt I",100% and 97%
same,percentages of living cells as compared to 100% survival of untreated cells,"OCM-3 cells; OCM-3, 24 h, 0.6 μM Salt I",100% and 105%
same,percentages of living cells as compared to 100% survival of untreated cells,"OCM-3 cells; OCM-3, 24 h, 5 μM Salt I",85% and 83%
same,percentages of living cells as compared to 100% survival of untreated cells,"OCM-3 cells; OCM-3, 24 h, 10 μM Salt I",87% and 98%
same,percentages of living cells as compared to 100% survival of untreated cells,"OCM-3 cells; OCM-3, 48 h, 0.3 μM Salt I",43% and 39%
same,percentages of living cells as compared to 100% survival of untreated cells,"OCM-3 cells; OCM-3, 48 h, 0.6 μM Salt I",34% and 27%
same,pIC50,"OCM-3 cells; read-out: IC50 of Salt I on survival, uveal melanoma cell line OCM-3, Example 1: 48 hours exposure",6.82
same,percentages of living cells as compared to 100% survival of untreated cells,"mel 202 cells; mel 202, 24 h, 0.3 μM Salt I",98% and 105%
same,percentages of living cells as compared to 100% survival of untreated cells,"mel 202 cells; mel 202, 24 h, 0.6 μM Salt I",92% and 104%
same,percentages of living cells as compared to 100% survival of untreated cells,"mel 202 cells; mel 202, 24 h, 5 μM Salt I",97% and 101%
same,percentages of living cells as compared to 100% survival of untreated cells,"mel 202 cells; mel 202, 24 h, 10 μM Salt I",78% and 87%
same,percentages of living cells as compared to 100% survival of untreated cells,"mel 202 cells; mel 202, 48 h, 0.3 μM Salt I",23% and 14%
same,percentages of living cells as compared to 100% survival of untreated cells,"mel 202 cells; mel 202, 48 h, 0.6 μM Salt I",19% and 17%
same,percentages of living cells as compared to 100% survival of untreated cells,"mel 202 cells; mel 202, 48 h, 5 μM Salt I",23% and 15%
same,pIC50,"mel 202 cells; read-out: IC50 of Salt I on survival, uveal melanoma cell line mel 202, Example 1: 48 hours exposure",7.15
